From patent US11369572B2, “Fas (Apo-1,CD95) targeted platforms for intracellular drug delivery” (Queen Mary & Westfield College, priority 2009, dated 2022)

Test system: IGROV1-luciferase cells
Experiment: Peritoneal ovarian cancer xenograft, bioluminescence imaging
Conditions: by day 48; n=5
Method: 5×10^6 IGROV1-luciferase cells were inoculated IP into female Balb C nu/nu mice on day 1. Paclitaxel (20 mg/kg) and PLGA microspheres were administered IP once per week (days 7, 14, 21 and 28). For bioluminescence imaging, mice were injected IP with 125 mg/kg D-luciferin (Calliper Life Sciences, UK) and then anesthetized (2% isofluorane by inhalation). Five minutes later, whilst still under anaesthetic, they were placed in a light-tight chamber on a warmed stage (37° C.) and light emission from a defined region of interest on a ventral surface was imaged on a Xenogen IVIS Imaging System 100 system (Alameda, Calif., USA). Data were analyzed using Living Image software (also Xenogen, Alameda, Calif., USA) and are presented as relative radiance (calculated from mean Radiance photons/s/cm2/sr).”
Standard error of mean (SEM) was used to assess consistency between each experimental group. One way ANOVA with Bonferroni post test were used to evaluate differences between groups. Two tailed t test was used to compare two groups.

Question: Which further animals sacrificed does the source give for CC(=O)O[C@H]1C(=O)[C@@]2(C)[C@H]([C@H](OC(=O)c3ccccc3)[C@]3(O)C[C@H](OC(=O)[C@H](O)[C@@H](NC(=O)c4ccccc4)c4ccccc4)C(C)=C1C3(C)C)[C@]1(OC(C)=O)CO[C@@H]1C[C@@H]2O [paclitaxel] here?
Answer: 2
